In the NIST ThermoML archive (doi:10.1021/je0342062):

Assays:
[1] = 101.33 kPa, Liquid, Vibrating tube method
[2] = xn = mol fraction of the nth substance listed; conditions: 308.15 K, 101.32 kPa, Liquid, Vibrating tube method
[3] = excess molar enthalpy (molar enthalpy of mixing); xn = mol fraction of the nth substance listed; conditions: 308.15 K, 101.32 kPa, Liquid

OCCOCCOCCO [triethylene glycol]
[1]
Conditions	mass density [kg/m3]
298.15 K	1119.78
308.15 K	1112.61

OCc1ccccc1 [benzenemethanol]
[1]
Conditions	mass density [kg/m3]
298.15 K	1041.46
308.15 K	1033.7

OCc1ccccc1 [benzenemethanol] + OCCO
Conditions	excess molar enthalpy [kcal/mol]	mass density [kg/m3]
[2], x2 = 0.0395	–	1035.06
[2], x2 = 0.1313	–	1038.54
[2], x2 = 0.2622	–	1044.29
[2], x2 = 0.3189	–	1047.1
[2], x2 = 0.4645	–	1055.28
[2], x2 = 0.5057	–	1057.9
[2], x2 = 0.609	–	1065.04
[2], x2 = 0.6863	–	1071.03
[2], x2 = 0.7371	–	1075.32
[2], x2 = 0.8097	–	1081.99
[2], x2 = 0.879	–	1088.96
[2], x2 = 0.9638	–	1098.48
[3], x2 = 0.0719	0.0277	–
[3], x2 = 0.1341	0.0409	–
[3], x2 = 0.1886	0.0482	–
[3], x2 = 0.2365	0.05	–
[3], x2 = 0.3173	0.0512	–
[3], x2 = 0.3826	0.0503	–
[3], x2 = 0.4817	0.048	–
[3], x2 = 0.5533	0.0457	–
[3], x2 = 0.6502	0.0402	–
[3], x2 = 0.7361	0.0331	–
[3], x2 = 0.788	0.0282	–
[3], x2 = 0.848	0.0206	–
[3], x2 = 0.8815	0.017	–
[3], x2 = 0.9177	0.0114	–
[3], x2 = 0.937	0.00875	–
[3], x2 = 0.9571	0.00602	–
[3], x2 = 0.9781	0.00299	–

OCc1ccccc1 [benzenemethanol] + OCCOCCO
Conditions	excess molar enthalpy [kcal/mol]	mass density [kg/m3]
[2], x2 = 0.0719	–	1038.79
[2], x2 = 0.1308	–	1042.93
[2], x2 = 0.2285	–	1049.76
[2], x2 = 0.3115	–	1055.63
[2], x2 = 0.4139	–	1062.92
[2], x2 = 0.5312	–	1071.36
[2], x2 = 0.6035	–	1076.6
[2], x2 = 0.7277	–	1085.7
[2], x2 = 0.8237	–	1092.77
[2], x2 = 0.8597	–	1095.43
[2], x2 = 0.8984	–	1098.29
[2], x2 = 0.9539	–	1102.43
[3], x2 = 0.0434	-0.0338	–
[3], x2 = 0.0833	-0.0564	–
[3], x2 = 0.1199	-0.0717	–
[3], x2 = 0.1537	-0.0822	–
[3], x2 = 0.2142	-0.0945	–
[3], x2 = 0.2665	-0.101	–
[3], x2 = 0.3528	-0.105	–
[3], x2 = 0.4208	-0.107	–
[3], x2 = 0.5216	-0.109	–
[3], x2 = 0.6206	-0.107	–
[3], x2 = 0.6856	-0.102	–
[3], x2 = 0.7658	-0.0887	–
[3], x2 = 0.8135	-0.0791	–
[3], x2 = 0.8674	-0.0599	–
[3], x2 = 0.897	-0.0501	–
[3], x2 = 0.929	-0.0362	–
[3], x2 = 0.9632	-0.0197	–

OCCOCCO [diethylene glycol]
[1]
Conditions	mass density [kg/m3]
298.15 K	1112.38
308.15 K	1105.88

OCc1ccccc1 [benzenemethanol] + OCCOCCOCCO
Conditions	excess molar enthalpy [kcal/mol]	mass density [kg/m3]
[2], x2 = 0.0519	–	1039.48
[2], x2 = 0.174	–	1051.93
[2], x2 = 0.2411	–	1058.18
[2], x2 = 0.3373	–	1066.69
[2], x2 = 0.4327	–	1074.57
[2], x2 = 0.5295	–	1082.04
[2], x2 = 0.632	–	1089.43
[2], x2 = 0.7533	–	1097.6
[2], x2 = 0.8256	–	1102.12
[2], x2 = 0.8572	–	1104.07
[2], x2 = 0.9337	–	1108.5
[2], x2 = 0.961	–	1110.01
[3], x2 = 0.0313	-0.0333	–
[3], x2 = 0.0606	-0.0576	–
[3], x2 = 0.0883	-0.0752	–
[3], x2 = 0.1143	-0.0883	–
[3], x2 = 0.1623	-0.104	–
[3], x2 = 0.2047	-0.111	–
[3], x2 = 0.2792	-0.118	–
[3], x2 = 0.3405	-0.12	–
[3], x2 = 0.4366	-0.121	–
[3], x2 = 0.5376	-0.121	–
[3], x2 = 0.6078	-0.12	–
[3], x2 = 0.6992	-0.109	–
[3], x2 = 0.756	-0.0968	–
[3], x2 = 0.823	-0.0791	–
[3], x2 = 0.8613	-0.0665	–
[3], x2 = 0.9029	-0.0502	–
[3], x2 = 0.949	-0.0239	–
